From US20090149531A1, “CHEMICAL COMPOSITION DERIVED FROM P-HYDROXYPHENYL PROPIONIC ACID FOR THE TREATMENT OF PSORIASIS” (APOTEKNOS PARA LA PIEL, S.L., priority 2007, published 2009)
Where “and” joins values, the source holds several entries; their conditions need not be identical. Equal values may be shown once.

Test system: Salmonella typhimurium TA1537
Experiment: Ames test without external metabolisation, TA1537
Assay type: cell-based
Settings: no metabolic activation; for Colonies per plate: individual plates 1-4; for Colonies per plate / Colonies per plate, Mean: 48 hours; for Mutagenic Ind,: relative to H+/B+
Method: The mutagenic activity of compound A was evaluated using the Ames test without external metabolisation. The Ames test is based on the use of bacterial strains to detect mutations in the DNA in vitro using bacterial strains that make it possible to detect types of damage to the genome.
Bacteria of 4 strains of Salmonella typhimurium that are internationally recommended for this test, TA1535, TA1537, TA98 and TA100, were used. The test was carried out according to highly standardised protocols. […] The test was carried out without external metabolic activation. The plates were incubated at 37° C. and the reverting colonies were counted after 48 hours.

C=C1C(=O)O[C@H](CCc2ccc(OC)cc2)[C@@H]1C [Compound A]
Colonies per plate (Comp. A 10 μg/ml, A): 0 (3×) and 1
Colonies per plate, Mean (Comp. A 10 μg/ml): 0.25
Mutagenic Ind, (Comp. A 10 μg/ml): 0.5
Colonies per plate (Comp. A 100 μg/ml, A): 0 (2×) and 1 and 2
Colonies per plate, Mean (Comp. A 100 μg/ml): 0.75
Mutagenic Ind, (Comp. A 100 μg/ml): 1.5
Colonies per plate (Comp. A 1 mg/ml): 0
Colonies per plate, Mean (Comp. A 1 mg/ml): 0
Mutagenic Ind, (Comp. A 1 mg/ml): 0
Ames test result (mutagenic effects) (TA1537, concentrations evaluated 10 μg/ml to 1 mg/ml): negative
